Test results published in ChEMBL document CHEMBL1201862, “PubChem BioAssay data set” (2004).
The source made the active and inactive calls.

Experiments:
[1] = target: T1, Rac GTPase-activating protein 1 (Homo sapiens, UniProt Q9H0H5); assay: MgcRacGAP GTPase-activating activity inhibitors, confirmation, biochemical, ADP Hunter fluorescence, primary and confirmatory (AID 624330); format: functional
T1 sequence (Q9H0H5 whole entry): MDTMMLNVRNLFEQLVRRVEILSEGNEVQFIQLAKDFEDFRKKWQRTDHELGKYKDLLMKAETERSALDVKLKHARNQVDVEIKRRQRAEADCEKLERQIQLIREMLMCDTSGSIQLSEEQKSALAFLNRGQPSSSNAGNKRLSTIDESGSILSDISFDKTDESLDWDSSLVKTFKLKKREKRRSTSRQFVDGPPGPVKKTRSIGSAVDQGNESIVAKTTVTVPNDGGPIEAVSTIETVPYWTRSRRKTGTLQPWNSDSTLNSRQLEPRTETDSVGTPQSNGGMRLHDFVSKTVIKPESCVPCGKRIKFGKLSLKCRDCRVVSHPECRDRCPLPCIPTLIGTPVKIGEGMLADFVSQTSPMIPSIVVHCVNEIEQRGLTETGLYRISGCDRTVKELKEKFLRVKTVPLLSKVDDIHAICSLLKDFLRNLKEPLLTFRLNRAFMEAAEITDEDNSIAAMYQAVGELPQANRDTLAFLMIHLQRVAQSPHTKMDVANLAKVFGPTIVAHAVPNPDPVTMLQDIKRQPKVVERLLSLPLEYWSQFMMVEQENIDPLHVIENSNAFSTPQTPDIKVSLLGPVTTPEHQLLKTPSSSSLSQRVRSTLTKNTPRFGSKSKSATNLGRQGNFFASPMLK

[2] = target: T2, Heat shock factor protein 1 (Mus musculus, UniProt P38532); assay: inhibition of MG132-induced HSE-luciferase signal, confirmation, cell-based, NIH3T3, luminescence, dose retest (AID 2382); format: functional;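 further: NIH3T3 fibroblasts with HSF1-driven luciferase reporter stressed by proteasome inhibitor MG132; luminescence from HSF1-driven luciferase expression after 8 hours of MG132 stress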
T2 sequence (P38532 whole entry): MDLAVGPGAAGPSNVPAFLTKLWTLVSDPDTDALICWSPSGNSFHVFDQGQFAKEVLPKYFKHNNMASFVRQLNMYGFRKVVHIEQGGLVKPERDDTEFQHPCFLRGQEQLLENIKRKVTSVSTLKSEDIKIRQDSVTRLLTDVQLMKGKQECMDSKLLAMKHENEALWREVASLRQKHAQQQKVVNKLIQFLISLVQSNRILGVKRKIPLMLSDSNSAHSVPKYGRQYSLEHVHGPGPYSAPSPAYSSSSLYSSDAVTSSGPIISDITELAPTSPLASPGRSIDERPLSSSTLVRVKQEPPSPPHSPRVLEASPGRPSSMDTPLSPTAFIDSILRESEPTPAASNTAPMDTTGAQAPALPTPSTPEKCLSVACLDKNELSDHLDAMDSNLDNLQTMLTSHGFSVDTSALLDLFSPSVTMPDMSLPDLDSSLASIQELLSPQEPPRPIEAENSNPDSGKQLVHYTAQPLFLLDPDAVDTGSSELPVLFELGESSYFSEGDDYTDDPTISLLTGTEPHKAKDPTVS

Cytochrome P450 2C19 = Cytochrome P450 2C19 (Homo sapiens, UniProt P33261); assay: Cytochrome panel assay with activity outcomes. Panel member name: p450-cyp2c19 Compounds with AC50 equal or less than 10 uM are considered active; format: functional; conditions: read-out: AC50
Cytochrome P450 2D6 = Cytochrome P450 2D6 (Homo sapiens, UniProt P10635);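 further: CYP2D6 member of a cytochrome P450 panel assay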
Cytochrome P450 1A2 = target: T3, Cytochrome P450 1A2 (Homo sapiens, UniProt P05177);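 further: PubChem cytochrome P450 panel assay, CYP1A2 panel member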
T3 sequence (P05177 whole entry): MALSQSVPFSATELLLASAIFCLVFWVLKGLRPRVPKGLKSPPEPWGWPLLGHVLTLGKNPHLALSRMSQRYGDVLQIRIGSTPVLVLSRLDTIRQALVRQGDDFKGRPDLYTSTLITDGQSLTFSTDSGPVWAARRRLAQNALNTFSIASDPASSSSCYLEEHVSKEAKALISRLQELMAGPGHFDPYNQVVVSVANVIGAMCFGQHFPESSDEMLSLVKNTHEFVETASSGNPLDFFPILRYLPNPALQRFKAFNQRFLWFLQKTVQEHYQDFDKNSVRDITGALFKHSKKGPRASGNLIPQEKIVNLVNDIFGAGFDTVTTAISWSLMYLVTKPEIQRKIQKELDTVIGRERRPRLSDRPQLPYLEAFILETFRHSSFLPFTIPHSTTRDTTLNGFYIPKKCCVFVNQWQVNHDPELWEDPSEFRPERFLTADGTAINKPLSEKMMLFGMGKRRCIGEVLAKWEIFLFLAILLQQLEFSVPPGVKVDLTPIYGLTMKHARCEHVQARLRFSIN

Cytochrome P450 3A4 = Cytochrome P450 3A4 (Homo sapiens, UniProt P08684);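 further: CYP3A4 tested as one member of a cytochrome P450 panel screen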
[3] = test system: Streptococcus sp. 'group A'; assay: growth inhibition of control SK(-) GAS strain, dose response, counter-screen for streptokinase expression inhibitor project, luminescence, kanamycin, BacTiterGlo, confirmation (AID 1900); format: functional, organism-based
Streptokinase A = target: T4, Streptokinase A (Streptococcus pyogenes serotype M1, UniProt P10520); assay: S. pyogenes streptokinase expression inhibitors, potency, dose response, plasminogen activation absorbance, OD405 (AID 1914); format: functional, Streptococcus pyogenes M1 GAS;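 further: secreted streptokinase activity via plasminogen activation per viability signal from cell pellet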
T4 sequence (P10520 whole entry): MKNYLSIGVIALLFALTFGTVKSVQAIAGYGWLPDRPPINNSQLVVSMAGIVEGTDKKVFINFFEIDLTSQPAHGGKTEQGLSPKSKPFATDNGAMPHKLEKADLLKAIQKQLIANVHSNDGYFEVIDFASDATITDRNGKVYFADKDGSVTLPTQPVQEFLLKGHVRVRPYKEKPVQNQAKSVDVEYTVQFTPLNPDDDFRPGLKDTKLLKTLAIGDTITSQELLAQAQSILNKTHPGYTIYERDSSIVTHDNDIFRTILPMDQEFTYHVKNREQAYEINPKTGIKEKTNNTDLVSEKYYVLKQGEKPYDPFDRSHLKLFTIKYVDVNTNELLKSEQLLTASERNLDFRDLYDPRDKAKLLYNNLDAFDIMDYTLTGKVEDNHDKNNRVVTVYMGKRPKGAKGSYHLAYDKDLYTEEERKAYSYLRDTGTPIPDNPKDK

Streptococcus = assay: Group A Streptococcus viability loss, dose response, counter-screen for streptokinase expression inhibitor project, luminescence, BacTiterGlo (AID 1915); format: functional, organism-based;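 further: potency for reduction of bacterial viability or growth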
[4] = NIH-3T3 fibroblast cytotoxicity, dose response, cytotoxicity control, cell-based, fluorescence, Alamar Blue, secondary assay (AID 2327); format: functional;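 further: NIH-3T3 mouse fibroblasts cultured with fluconazole at 8 µg/mL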
[5] = Luminescence Cell-Based Dose Retest to Confirm Inhibitors of Cancer Stem Cells. [Related pubchem assays (depositor defined):AID2717, AID2721]; format: functional; conditions: Homo sapiens
Cytochrome P450 2C9 = Cytochrome P450 2C9 (Homo sapiens, UniProt P11712)
Paired box protein Pax-8 = Paired box protein Pax-8 (Homo sapiens, UniProt Q06710); assay: inhibitors of PAX8-driven TPO luciferase reporter, dose response, RMG-I cells, cherry-pick (AID 687027); format: functional, cell-based;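 further: luciferase reporter driven by Pax8 target thyroperoxidase promoter measured by SteadyGlo luminescence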
Paired box protein Pax-8, sequence (Q06710 whole entry): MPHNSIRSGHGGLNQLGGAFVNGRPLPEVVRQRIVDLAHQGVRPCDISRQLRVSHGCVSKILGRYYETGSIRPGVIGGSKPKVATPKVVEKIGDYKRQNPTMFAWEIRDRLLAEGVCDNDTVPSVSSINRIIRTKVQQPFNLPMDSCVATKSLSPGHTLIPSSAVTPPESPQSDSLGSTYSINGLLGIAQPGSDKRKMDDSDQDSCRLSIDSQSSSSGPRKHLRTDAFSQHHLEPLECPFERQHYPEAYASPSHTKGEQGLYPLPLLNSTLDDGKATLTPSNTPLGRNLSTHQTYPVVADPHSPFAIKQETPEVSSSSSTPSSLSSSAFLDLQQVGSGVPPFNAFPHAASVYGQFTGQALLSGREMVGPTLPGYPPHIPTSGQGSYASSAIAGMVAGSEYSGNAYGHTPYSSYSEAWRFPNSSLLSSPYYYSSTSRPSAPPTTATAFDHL

Cytochrome P450 2C19, sequence (P33261 whole entry): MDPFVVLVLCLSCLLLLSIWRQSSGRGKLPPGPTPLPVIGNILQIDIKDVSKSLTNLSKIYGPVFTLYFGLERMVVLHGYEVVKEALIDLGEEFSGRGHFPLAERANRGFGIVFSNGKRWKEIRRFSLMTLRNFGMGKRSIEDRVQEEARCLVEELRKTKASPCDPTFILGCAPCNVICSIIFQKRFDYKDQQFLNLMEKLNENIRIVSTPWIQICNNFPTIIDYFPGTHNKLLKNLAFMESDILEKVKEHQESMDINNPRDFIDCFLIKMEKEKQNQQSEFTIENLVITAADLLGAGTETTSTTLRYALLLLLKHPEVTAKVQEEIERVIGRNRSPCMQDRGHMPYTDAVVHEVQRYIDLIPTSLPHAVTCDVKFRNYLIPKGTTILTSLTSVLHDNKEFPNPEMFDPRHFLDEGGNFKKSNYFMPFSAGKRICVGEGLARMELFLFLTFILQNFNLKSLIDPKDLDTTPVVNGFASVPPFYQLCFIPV
Cytochrome P450 2D6, sequence (P10635 whole entry): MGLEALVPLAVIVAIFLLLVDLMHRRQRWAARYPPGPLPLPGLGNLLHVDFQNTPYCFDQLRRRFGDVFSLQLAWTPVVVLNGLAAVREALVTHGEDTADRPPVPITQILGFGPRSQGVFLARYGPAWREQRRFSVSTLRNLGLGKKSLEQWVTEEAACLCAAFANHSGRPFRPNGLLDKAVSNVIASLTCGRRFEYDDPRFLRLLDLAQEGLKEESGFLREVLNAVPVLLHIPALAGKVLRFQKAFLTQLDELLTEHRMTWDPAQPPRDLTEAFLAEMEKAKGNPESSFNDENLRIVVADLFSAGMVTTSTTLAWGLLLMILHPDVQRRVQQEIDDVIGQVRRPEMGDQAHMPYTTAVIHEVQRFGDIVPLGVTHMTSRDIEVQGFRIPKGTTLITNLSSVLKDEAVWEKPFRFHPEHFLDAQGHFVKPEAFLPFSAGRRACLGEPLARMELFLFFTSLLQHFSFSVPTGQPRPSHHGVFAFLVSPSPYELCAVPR
Cytochrome P450 3A4, sequence (P08684 whole entry): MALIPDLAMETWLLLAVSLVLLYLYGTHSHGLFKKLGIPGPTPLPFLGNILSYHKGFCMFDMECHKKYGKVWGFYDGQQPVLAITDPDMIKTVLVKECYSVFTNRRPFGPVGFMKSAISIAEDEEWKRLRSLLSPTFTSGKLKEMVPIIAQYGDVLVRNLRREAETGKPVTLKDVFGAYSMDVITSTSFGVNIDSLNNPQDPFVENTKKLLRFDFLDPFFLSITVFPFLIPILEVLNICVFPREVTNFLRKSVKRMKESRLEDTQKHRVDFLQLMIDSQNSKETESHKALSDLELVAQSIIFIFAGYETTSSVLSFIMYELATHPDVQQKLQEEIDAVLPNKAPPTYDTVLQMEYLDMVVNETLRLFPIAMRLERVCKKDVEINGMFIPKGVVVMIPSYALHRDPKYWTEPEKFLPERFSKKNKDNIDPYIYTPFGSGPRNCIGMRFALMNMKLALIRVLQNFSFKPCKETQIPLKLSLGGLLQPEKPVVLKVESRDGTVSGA
Cytochrome P450 2C9, sequence (P11712 whole entry): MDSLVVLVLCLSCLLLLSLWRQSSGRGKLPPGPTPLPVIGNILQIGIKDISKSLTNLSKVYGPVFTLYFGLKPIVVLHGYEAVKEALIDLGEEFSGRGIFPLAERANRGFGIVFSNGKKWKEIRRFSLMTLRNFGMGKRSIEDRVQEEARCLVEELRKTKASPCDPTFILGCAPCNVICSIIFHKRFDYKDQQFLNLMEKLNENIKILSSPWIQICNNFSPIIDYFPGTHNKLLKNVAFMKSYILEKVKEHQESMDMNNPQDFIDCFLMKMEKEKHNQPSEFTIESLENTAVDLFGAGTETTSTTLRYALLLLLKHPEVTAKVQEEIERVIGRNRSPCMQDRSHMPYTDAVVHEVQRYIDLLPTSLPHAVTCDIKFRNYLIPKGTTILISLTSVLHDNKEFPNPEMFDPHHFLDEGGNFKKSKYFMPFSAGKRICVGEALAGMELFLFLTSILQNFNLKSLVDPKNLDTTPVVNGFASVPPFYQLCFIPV

CCOC(=O)C1=C(COC(=O)/C=C/c2ccc(O)c(OC)c2)NC(=O)NC1C (stereo not drawn)
IC50 [1]: 59.4 µM (active)

COc1ccc(NC(=O)C2CC2)cc1-n1cnnn1
EC50 [2]: > 195 µM (not active)

O=c1c(Oc2ccccc2Br)c(C(F)(F)F)oc2c(CN3CCCC3)c(O)ccc12
AC50 (Cytochrome P450 2C19): 39.8 µM (inconclusive)
AC50 (Cytochrome P450 2D6): 17.8 µM (inconclusive)
AC50 (Cytochrome P450 1A2): 17.8 µM (inconclusive)

CC1=NN(C(=O)c2ccncc2)C(=O)[C@@H]1/N=N\c1ccc2ccccc2c1
AC50 (Cytochrome P450 2C19): 3.98 µM (inconclusive)
AC50 (Cytochrome P450 2D6): 3.16 µM (inconclusive)
AC50 (Cytochrome P450 3A4): 3.98 µM (inconclusive)

Cn1c(=O)c2c(SCC(=O)N3CCCc4ccccc43)nc(C3CC3)nc2n(C)c1=O
EC50 [2]: > 195 µM (not active)

O=C(O)c1ccc2c(c1)C(=O)N(C(Cc1ccc(O)cc1)C(=O)O)C2=O (stereo not drawn)
AC50 (Cytochrome P450 2D6): 0.01 µM (inconclusive)

CCN(CC)CCCNCC(=O)Nc1ccc2c(c1)CCC2
IC50 [1]: 117 µM (active)

CC(C)N1CCN(c2ccncc2S(=O)(=O)N2CCCCC2)CC1
AC50 (Cytochrome P450 2D6): 3.98 µM (inconclusive)

CCN(CC)c1ccc(-n2cc3c(=O)n(C)c(=O)n(C)c3c2)cc1
EC50 [3]: 4.91 µM (active)
EC50 (Streptokinase A): > 150 µM (not active)
EC50 (Streptococcus): 39.3 µM (active)

Cn1c2c(c(=O)n(C)c1=O)C1(C(=O)Nc3ccccc31)C(C#N)=C(N)O2 (stereo not drawn)
AC50 (Cytochrome P450 2D6): 14.1 µM (inconclusive)
AC50 (Cytochrome P450 1A2): 25.1 µM (inconclusive)
AC50 (Cytochrome P450 3A4): 22.4 µM (inconclusive)

COc1ccc(-c2cc(-c3c(O)c(OC)c4occc4c3OC)[nH]n2)cc1
EC50 [4]: 25.8 µM (active)

CCOC(=O)c1cnn(-c2nc3c(C)cccc3s2)c1C(F)(F)F
EC50 [3]: 9.35 µM (active)
EC50 (Streptokinase A): 22.3 µM (active)
EC50 (Streptococcus): 16.6 µM (active)

Nc1ccc2nc(-c3ccccn3)[nH]c2c1
EC50 [2]: 23.2 µM (active)

Nc1c(Cl)ncnc1NCCc1ccc(O)cc1
IC50 [1]: 99.1 µM (active)

Nc1c(S(=O)(=O)c2cccs2)c2nc3ccccc3nc2n1/N=C/c1cccc(O)c1
EC50 [3]: 3.26 µM (active)
EC50 (Streptokinase A): > 150 µM (not active)
EC50 (Streptococcus): 7.29 µM (active)
AC50 [5]: 3.99 µM (active)

O=C(Nc1ccc2c(c1)CCC2)c1cc(S(=O)(=O)Nc2ccc(F)cc2)c(Cl)cc1Cl
EC50 [3]: 3.5 µM (active)
EC50 (Streptokinase A): 3.26 µM (active)
EC50 (Streptococcus): 15.2 µM (active)
AC50 [5]: 4.35 µM (active)

Cc1cccc(NC(=O)C2CCN(S(=O)(=O)c3cccc4nsnc34)CC2)n1
AC50 (Cytochrome P450 2D6): 14.1 µM (inconclusive)
AC50 (Cytochrome P450 1A2): 0.0794 µM (inconclusive)
AC50 (Cytochrome P450 2C9): 14.1 µM (inconclusive)

COc1ccc(OC(C)C(=O)N2CCC(C)CC2)cc1 (stereo not drawn)
EC50 [2]: > 195 µM (not active)

C[C@@H]1CCCCO[C@H](CN(C)Cc2ccc(C(F)(F)F)cc2)[C@H](C)CN([C@@H](C)CO)C(=O)c2cc(NS(=O)(=O)c3cccs3)ccc2O1
AC50 (Paired box protein Pax-8): 9.41 µM (active)

O=C(c1ccncc1)N1CCC2(CCN(Cc3ccncc3)CC2)CC1
AC50 (Cytochrome P450 2D6): 25.1 µM (inconclusive)
AC50 (Cytochrome P450 3A4): 15.8 µM (inconclusive)
AC50 (Cytochrome P450 2C9): 20 µM (inconclusive)

FC(F)(F)c1ccccc1-c1nc(N2CCOCC2)c2ccccc2n1
AC50 (Cytochrome P450 2D6): 25.1 µM (inconclusive)
AC50 (Cytochrome P450 3A4): 12.6 µM (inconclusive)

COc1ccc(N2CCN(C(=O)Cc3ccc(-n4c(=O)[nH]c5ccccc5c4=O)cc3)CC2)cc1
EC50 [2]: > 195 µM (not active)

COc1ccc(N2CCN(C(CNC(=O)CC(C)(C)C)c3ccc4c(c3)OCO4)CC2)cc1 (stereo not drawn)
IC50 [1]: 166 µM (active)

C/C(=N\N=C(/N)SC1CC(=O)N(c2ccc(Cl)c(Cl)c2)C1=O)c1cccs1 (stereo not drawn)
EC50 [3]: 2.88 µM (active)
EC50 (Streptokinase A): 7.44 µM (inconclusive)
EC50 (Streptococcus): 8.08 µM (active)
AC50 [5]: 3.86 µM (active)

FC(F)(F)c1cc(N2CCN(Cc3ccccc3)CC2)c2ccccc2n1
EC50 [3]: > 150 µM (not active)
EC50 (Streptokinase A): > 150 µM (not active)
EC50 (Streptococcus): > 150 µM (not active)

Cc1ccc(C)c(CSC2=NCCN2S(=O)(=O)c2ccccc2)c1
EC50 [3]: 21.7 µM (active)
EC50 (Streptokinase A): 17.3 µM (active)
EC50 (Streptococcus): > 150 µM (not active)

Sc1nnc(-c2cnccn2)n1-c1ccccc1
EC50 [2]: > 195 µM (not active)

O=C1CC[C@](CCc2nc3ccccc3[nH]2)(c2ccccc2)C(=O)N1
AC50 (Cytochrome P450 2D6): 2.51 µM (inconclusive)

C[n+]1ccc(C=NNc2nc(Cl)c(C#N)c(Cl)c2Cl)cc1
EC50 [3]: 33 µM (active)
EC50 (Streptokinase A): > 150 µM (not active)
EC50 (Streptococcus): > 150 µM (not active)

COc1cccc([C@H]2Oc3ccc(OC)cc3/C(=N\OC[C@@H](O)[C@@H]3O[C@@H]4OC(C)(C)O[C@@H]4[C@H]3O)[C@@H]2O)c1
AC50 (Cytochrome P450 2D6): 3.16 µM (inconclusive)

COC(=O)C1(CC(C)C)C=C2C(=C(C(C)C)C(=O)C2C)CN1 (stereo not drawn)
AC50 (Cytochrome P450 2C19): 25.1 µM (inconclusive)
AC50 (Cytochrome P450 2D6): 25.1 µM (inconclusive)
AC50 (Cytochrome P450 1A2): 15.8 µM (inconclusive)
AC50 (Cytochrome P450 3A4): 20 µM (inconclusive)

COc1ccc(S(=O)(=O)NCC2CCCN(C(=O)C3CCCC3)C2)cc1 (stereo not drawn)
EC50 [2]: > 195 µM (not active)

CCN(CC)CCOC(=O)c1c(C)n(C)c2ccc(OC)cc12
AC50 (Cytochrome P450 2C19): 39.8 µM (inconclusive)
AC50 (Cytochrome P450 2D6): 28.2 µM (inconclusive)

O=C(OCc1cccc(F)c1)c1ccc2c(c1)-c1ccccc1C2=O
AC50 (Cytochrome P450 2D6): 0.355 µM (inconclusive)
AC50 (Cytochrome P450 2C9): 10 µM (inconclusive)

Oc1ccc(-c2c(C3=CCCCC3)sc3ccccc23)cc1
EC50 [3]: 2.48 µM (active)
EC50 (Streptokinase A): 55.7 µM (inconclusive)
EC50 (Streptococcus): 7.29 µM (active)

COc1ccc(C(=O)N2CCC3(CCCN(Cc4ccncc4)C3)CC2)cc1
AC50 (Cytochrome P450 2D6): 12.6 µM (inconclusive)
